Laboratory results taken from publication PMC9079729, “Conservation of the conformational dynamics and ligand binding within M49 enzyme family” (RSC Advances, 2018).
Residues, ends and D or L forms follow the SMILES beside them.

Legend:
yDPP III [1] = target: T1, yDPP III (Saccharomyces cerevisiae, UniProt Q08225); assay: Inhibition of DPP III hydrolysis of Arg2-2NA by tynorphin; assay type: biochemical, yeast (Saccharomyces cerevisiae); details: substrate Arg2-2NA, from initial hydrolysis rates, eq. 1
T1 construct: His6 (C); made in house; host or cells: E. coli
T1 sequence (Q08225 1-711): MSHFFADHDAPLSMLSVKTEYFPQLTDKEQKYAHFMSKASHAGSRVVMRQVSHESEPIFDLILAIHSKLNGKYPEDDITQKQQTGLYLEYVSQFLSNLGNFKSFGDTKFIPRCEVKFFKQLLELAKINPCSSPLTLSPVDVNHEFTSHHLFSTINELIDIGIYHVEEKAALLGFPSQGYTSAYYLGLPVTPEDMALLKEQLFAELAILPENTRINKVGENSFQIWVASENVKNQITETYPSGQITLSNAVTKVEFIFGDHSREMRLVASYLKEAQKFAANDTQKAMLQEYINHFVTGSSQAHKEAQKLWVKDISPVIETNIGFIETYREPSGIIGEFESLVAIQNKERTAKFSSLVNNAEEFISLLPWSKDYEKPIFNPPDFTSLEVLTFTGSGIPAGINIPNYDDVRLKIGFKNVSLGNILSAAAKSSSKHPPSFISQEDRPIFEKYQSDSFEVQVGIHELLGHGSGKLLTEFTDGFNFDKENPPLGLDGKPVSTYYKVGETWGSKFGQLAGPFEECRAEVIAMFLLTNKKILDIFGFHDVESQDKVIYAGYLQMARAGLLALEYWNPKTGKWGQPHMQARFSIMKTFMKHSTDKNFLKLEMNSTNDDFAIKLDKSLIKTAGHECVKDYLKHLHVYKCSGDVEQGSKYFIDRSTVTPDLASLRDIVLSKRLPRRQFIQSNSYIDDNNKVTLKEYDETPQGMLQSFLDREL
Procedure: The Km values for hydrolysis of fluorogenic substrate Arg2-2NA were determined at pH 7.4 (20 mM Tris–HCl buffer) and at 25 °C, from the initial reaction rates as previously described.[26]
Enzyme inhibition studies with tynorphin were performed using the Arg2-2NA as a substrate, according to Baršun et al.[36] The inhibition constant, Ki, was calculated according to the equation:1 Ki = i/(v0/vi − 1)·Km/(Km + s)where v0 and vi are the initial hydrolysis rates of Arg2-2NA (given in concentration s) catalyzed by DPP III in the absence and presence of inhibitor concentration (i), and Km is the Michaelis constant.

yDPP III [2] = target: T1, yDPP III; assay: Differential HDX-MS, unliganded vs. tynorphin complex; assay type: binding, yeast (Saccharomyces cerevisiae); details: yDPP III peptide p42 (407-422)
Procedure: In the first step of the HDX analysis, optimization of digestion conditions and establishing a list of peptic peptides for all DPP III orthologues was carried out. With non-deuterated sample, a 5 μL aliquot of protein stock (between 35–50 μM in 20 mM Tris, pH 7.4) was diluted 10 times by adding 45 μL of 20 mM Tris, pH 7.4 (H2O reaction buffer). Next, the sample was acidified by mixing with 10 μL of 2 M glycine buffer, pH 2.5 (H2O stop buffer). The sample was subjected to online pepsin digestion using a 2.1 mm × 30 mm immobilized pepsin resin column (Porozyme, ABI, Foster City, CA) with 200 μL min^−1 flow of 0.07% formic acid in water as a mobile phase. Digested peptides were passed directly to the 2.1 mm × 5 mm C18 trapping column (Acquity BEH C18 VanGuard precolumn, 1.7 μm resin, Waters, Milford, MA). […]
Separate hydrogen deuterium exchange experiments were carried out for six unliganded DPP III enzymes, human V412I mutant, and their tynorphin complexes. […] The reaction buffer was prepared using D2O (99.8% Armar Chemicals, Switzerland), in which the pH (uncorrected meter reading) was adjusted using DCl or NaOD (Sigma). […] Relative deuterium uptake values are calculated without correction for back exchange. […]

BtDPP III = target: T2, BtDPP III (Bacteroides thetaiotaomicron, UniProt Q8A6N1); assay: Inhibition of DPP III hydrolysis of Arg2-2NA by tynorphin; assay type: biochemical; details: substrate Arg2-2NA, from initial hydrolysis rates, eq. 1
T2 construct: made in house; host or cells: E. coli
T2 sequence (Q8A6N1 entry or part of it, change not shown): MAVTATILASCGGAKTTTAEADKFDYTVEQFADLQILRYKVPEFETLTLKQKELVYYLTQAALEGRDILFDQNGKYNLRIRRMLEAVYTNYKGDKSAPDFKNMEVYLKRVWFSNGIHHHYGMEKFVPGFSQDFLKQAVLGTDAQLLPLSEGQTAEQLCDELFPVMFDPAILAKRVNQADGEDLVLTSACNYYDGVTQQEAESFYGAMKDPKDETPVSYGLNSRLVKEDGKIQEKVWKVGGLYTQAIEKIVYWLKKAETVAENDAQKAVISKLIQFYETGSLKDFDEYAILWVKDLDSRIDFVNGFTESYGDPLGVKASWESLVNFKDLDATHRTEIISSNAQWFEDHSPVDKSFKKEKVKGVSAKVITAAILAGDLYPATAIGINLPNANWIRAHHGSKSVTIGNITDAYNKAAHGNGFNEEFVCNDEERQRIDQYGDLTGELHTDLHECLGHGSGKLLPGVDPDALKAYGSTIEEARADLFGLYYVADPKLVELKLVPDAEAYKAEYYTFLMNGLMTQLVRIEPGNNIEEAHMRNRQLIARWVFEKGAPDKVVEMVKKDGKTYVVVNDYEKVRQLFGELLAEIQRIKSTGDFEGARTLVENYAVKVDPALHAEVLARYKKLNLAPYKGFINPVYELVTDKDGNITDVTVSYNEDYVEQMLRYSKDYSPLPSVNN

Q: Which Ki (yDPP III [1]) does the source give for `CC(C)[C@H](N)C(=O)N[C@H](C(=O)N[C@@H](Cc1ccc(O)cc1)C(=O)N1CCC[C@H]1C(=O)N[C@@H](Cc1c[nH]c2ccccc12)C(=O)O)C(C)C` [tynorphin] (H-VVYPW-OH) here?
A: 0.47 µM

Q: And the “deuterium incorporation decrease, fast exchanging conformation” value (yDPP III [2])?
A: less than 1%

Q: And the “deuterium incorporation decrease, slow exchanging conformation” value (yDPP III [2])?
A: more than 22%

Q: What about the Ki (BtDPP III) of the same compound?
A: 0.98 µM
